Values quoted from earlier work, collected in publication PMC3800486 (Amino acids, 2013).

System: polo-like kinase 1 (Plk1) polo box domain (PBD)
Details: previously shown; ref Yun et al. 2009; Liu et al. 2011; Liu et al. 2012b, a

**Q.** With Ac-Pro-Leu-His-Ser-Pmab-amide as the substance, how does the “affinity for the Plk1 PBD (in words)” value read?
**A.** Its value is “good affinity”.
